Mutagenic call data for five molecules are collected here from PubChem BioAssay AID1259407 (Chemical Carcinogenesis Research Information System (CCRIS), 2018).

Active and inactive are the calls of the source. The rule behind the calls is not given here.

This series concerns CCRIS mutagenicity, Ames/micronucleus/aberration tests. Description: CCRIS mutagenicity studies.
The mark [1] stands for this setting: Test System: AMES SALMONELLA TYPHIMURIUM, Strain/Indicator: TA98, Metabolic Activation: HAMSTER, LIVER, S-9, AROCLOR 1254 (10%), Method: PREINCUBATION
Where [2] appears, read: Test System: AMES SALMONELLA TYPHIMURIUM, Strain/Indicator: TA98, Metabolic Activation: NONE, Method: PREINCUBATION
[3] abbreviates: Test System: AMES SALMONELLA TYPHIMURIUM, Strain/Indicator: TA98, Metabolic Activation: RAT, LIVER, S-9, AROCLOR 1254 (10%), Method: PREINCUBATION
[4] abbreviates: Test System: AMES SALMONELLA TYPHIMURIUM, Strain/Indicator: TA100, Metabolic Activation: HAMSTER, LIVER, S-9, AROCLOR 1254 (10%), Method: PREINCUBATION
Where [5] appears, read: Test System: AMES SALMONELLA TYPHIMURIUM, Strain/Indicator: TA100, Metabolic Activation: NONE, Method: PREINCUBATION
The mark [6] stands for this setting: Test System: AMES SALMONELLA TYPHIMURIUM, Strain/Indicator: TA100, Metabolic Activation: RAT, LIVER, S-9, AROCLOR 1254 (10%), Method: PREINCUBATION
[7] abbreviates: Test System: AMES SALMONELLA TYPHIMURIUM, Strain/Indicator: TA1535, Metabolic Activation: HAMSTER, LIVER, S-9, AROCLOR 1254 (10%), Method: PREINCUBATION
Setting [8] is: Test System: AMES SALMONELLA TYPHIMURIUM, Strain/Indicator: TA1535, Metabolic Activation: NONE, Method: PREINCUBATION
Where [9] appears, read: Test System: AMES SALMONELLA TYPHIMURIUM, Strain/Indicator: TA1535, Metabolic Activation: RAT, LIVER, S-9, AROCLOR 1254 (10%), Method: PREINCUBATION
Where [10] appears, read: Test System: AMES SALMONELLA TYPHIMURIUM, Strain/Indicator: TA1537, Metabolic Activation: NONE, Method: PREINCUBATION
[11] abbreviates: Test System: AMES SALMONELLA TYPHIMURIUM, Strain/Indicator: TA1538, Metabolic Activation: RAT, LIVER, S-9, AROCLOR 1254, Method: STANDARD PLATE.

Take `O=C(O)c1cccc(Cl)c1`: the mutagenic call was “inactive; negative” (Test System: AMES SALMONELLA TYPHIMURIUM, Strain/Indicator: TA97, Metabolic Activation: HAMSTER, LIVER, S-9, AROCLOR 1254 (10%), Method: PREINCUBATION); “inactive; negative” (Test System: AMES SALMONELLA TYPHIMURIUM, Strain/Indicator: TA97, Metabolic Activation: HAMSTER, LIVER, S-9, AROCLOR 1254 (30%), Method: PREINCUBATION); “inactive; negative” (Test System: AMES SALMONELLA TYPHIMURIUM, Strain/Indicator: TA97, Metabolic Activation: NONE, Method: PREINCUBATION); “inactive; negative” (Test System: AMES SALMONELLA TYPHIMURIUM, Strain/Indicator: TA97, Metabolic Activation: RAT, LIVER, S-9, AROCLOR 1254 (10%), Method: PREINCUBATION); “inactive; negative” (Test System: AMES SALMONELLA TYPHIMURIUM, Strain/Indicator: TA97, Metabolic Activation: RAT, LIVER, S-9, AROCLOR 1254 (30%), Method: PREINCUBATION); “inactive; negative” under setting [1]. Also, the mutagenic call runs as follows: (Test System: AMES SALMONELLA TYPHIMURIUM, Strain/Indicator: TA98, Metabolic Activation: HAMSTER, LIVER, S-9, AROCLOR 1254 (30%), Method: PREINCUBATION) “inactive; negative”; under setting [2], “inactive; negative”; (Test System: AMES SALMONELLA TYPHIMURIUM, Strain/Indicator: TA98, Metabolic Activation: RAT LIVER S-9, PCB, Method: PREINCUBATION) “inactive; negative”; under setting [3], “inactive; negative”; (Test System: AMES SALMONELLA TYPHIMURIUM, Strain/Indicator: TA98, Metabolic Activation: RAT, LIVER, S-9, AROCLOR 1254 (30%), Method: PREINCUBATION) “inactive; negative”; under setting [4], “inactive; negative”. Moreover, the mutagenic call (Test System: AMES SALMONELLA TYPHIMURIUM, Strain/Indicator: TA100, Metabolic Activation: HAMSTER, LIVER, S-9, AROCLOR 1254 (30%), Method: PREINCUBATION) was “inactive; negative”; the mutagenic call under setting [5] is “inactive; negative”; the mutagenic call (Test System: AMES SALMONELLA TYPHIMURIUM, Strain/Indicator: TA100, Metabolic Activation: RAT LIVER S-9, PCB, Method: PREINCUBATION) is “inactive; negative”; the mutagenic call under setting [6] is “inactive; negative”; the mutagenic call (Test System: AMES SALMONELLA TYPHIMURIUM, Strain/Indicator: TA100, Metabolic Activation: RAT, LIVER, S-9, AROCLOR 1254 (30%), Method: PREINCUBATION) is “inactive; negative”; the mutagenic call (Test System: AMES SALMONELLA TYPHIMURIUM, Strain/Indicator: TA104, Metabolic Activation: NONE, Method: PREINCUBATION) was “inactive; negative”. The mutagenic call is “inactive; negative” (Test System: AMES SALMONELLA TYPHIMURIUM, Strain/Indicator: TA104, Metabolic Activation: RAT LIVER S-9, PCB, Method: PREINCUBATION); “inactive; negative” under setting [7]; “inactive; negative” (Test System: AMES SALMONELLA TYPHIMURIUM, Strain/Indicator: TA1535, Metabolic Activation: HAMSTER, LIVER, S-9, AROCLOR 1254 (30%), Method: PREINCUBATION); “inactive; negative” under setting [8]; “inactive; negative” under setting [9]; “inactive; negative” (Test System: AMES SALMONELLA TYPHIMURIUM, Strain/Indicator: TA1535, Metabolic Activation: RAT, LIVER, S-9, AROCLOR 1254 (30%), Method: PREINCUBATION). The mutagenic call (Test System: AMES SALMONELLA TYPHIMURIUM, Strain/Indicator: TA1537, Metabolic Activation: HAMSTER, LIVER, S-9, AROCLOR 1254 (30%), Method: PREINCUBATION) is “inactive; negative”; the mutagenic call under setting [10] was “inactive; negative”; the mutagenic call (Test System: AMES SALMONELLA TYPHIMURIUM, Strain/Indicator: TA1537, Metabolic Activation: RAT, LIVER, S-9, AROCLOR 1254 (30%), Method: PREINCUBATION) is “inactive; negative”; the mutagenic call (Test System: E.COLI, Strain/Indicator: WP2 UVRA, Metabolic Activation: NONE, Method: PREINCUBATION) is “inactive; negative”; the mutagenic call (Test System: E.COLI, Strain/Indicator: WP2 UVRA, Metabolic Activation: RAT LIVER S-9, PCB, Method: PREINCUBATION) is “inactive; negative”.

For `[O]=[V](=[O])[OH]`, the mutagenic call reads like this: (Test System: AMES SALMONELLA TYPHIMURIUM, Strain/Indicator: TA100, Metabolic Activation: NONE, Method: FLUCTUATION TEST) “active; positive”; (Test System: AMES SALMONELLA TYPHIMURIUM, Strain/Indicator: TA1535, Metabolic Activation: NONE, Method: STANDARD PLATE (PH 7.8, MEDIUM WITH TRIMETAPHOSPHATE IONS)) “active; positive”; (Test System: CHINESE HAMSTER G12, Strain/Indicator: G12/6-THIOGUANINE, Metabolic Activation: NONE) “active; positive”; (Test System: CHINESE HAMSTER V-79, Strain/Indicator: V-79/6-THIOGUANINE, Metabolic Activation: MOUSE, LIVER, S-9) “inactive; negative”; (Test System: E. COLI, Strain/Indicator: WP2 UVRA, Metabolic Activation: NONE, Method: SPOT TEST) “inactive; negative”.

With `COc1cc(-c2ccc(N/N=C3\C(=O)c4c(O)cc(S(=O)(=O)O)cc4C=C3S(=O)(=O)O)c(OC)c2)ccc1N/N=C1\C(=O)c2c(O)cc(S(=O)(=O)O)cc2C=C1S(=O)(=O)O`, the mutagenic call reads like this: under setting [1], “inactive; negative”; under setting [2], “inactive; negative”; under setting [3], “inactive; negative”; under setting [4], “inactive; negative”; under setting [5], “inactive; negative”; under setting [6], “inactive; negative”. The mutagenic call reads like this: under setting [7], “inactive; negative”; under setting [8], “inactive; negative”; under setting [9], “inactive; negative”; (Test System: AMES SALMONELLA TYPHIMURIUM, Strain/Indicator: TA1537, Metabolic Activation: HAMSTER, LIVER, S-9, AROCLOR 1254 (10%), Method: PREINCUBATION) “inactive; negative”; under setting [10], “inactive; negative”; (Test System: AMES SALMONELLA TYPHIMURIUM, Strain/Indicator: TA1537, Metabolic Activation: RAT, LIVER, S-9, AROCLOR 1254 (10%), Method: PREINCUBATION) “inactive; negative”. In addition, under setting [11], the mutagenic call is “inactive; negative”.

On to `CCN(CC)c1ccc(N=Nc2ccc(N=Nc3c(S(=O)(=O)O)cc4ccc(N)cc4c3O)c(OC)c2)cc1`, for which the mutagenic call reads like this: (Test System: AMES SALMONELLA TYPHIMURIUM, Strain/Indicator: TA98, Metabolic Activation: NONE, Method: STANDARD PLATE) “inactive; negative”; (Test System: AMES SALMONELLA TYPHIMURIUM, Strain/Indicator: TA98, Metabolic Activation: RAT, LIVER, S-9, AROCLOR 1254, Method: STANDARD PLATE) “active; positive”; (Test System: AMES SALMONELLA TYPHIMURIUM, Strain/Indicator: TA100, Metabolic Activation: NONE, Method: STANDARD PLATE) “inactive; negative”; (Test System: AMES SALMONELLA TYPHIMURIUM, Strain/Indicator: TA100, Metabolic Activation: RAT, LIVER, S-9, AROCLOR 1254, Method: STANDARD PLATE) “inactive; negative”; (Test System: AMES SALMONELLA TYPHIMURIUM, Strain/Indicator: TA1538, Metabolic Activation: NONE, Method: STANDARD PLATE) “inactive; negative”; under setting [11], “active; positive”.

Turning to `Nc1cc(N)cc(Cl)c1`, the mutagenic call (End Point: IN VITRO CHROMOSOMAL ABERRATIONS, Test System: CHL CELLS, Metabolic Activation: RAT, LIVER, S-9, SODIUM PHENOBARBITAL AND 5,6-BENZOFLAVONE) was “active; positive (structural changes)” and the mutagenic call (Test System: UDS RODENT HEPATOCYTES, Strain/Indicator: THY INCORP (NON-S-PHASE), Metabolic Activation: NONE, Method: AUTORADIOGRAPHY) was “active; positive”.
